Data reported in article PMC10233829 (ACS Omega, 2023).
Converted amounts (≈) assume the structure as drawn. Where two headings read alike, the source gives them in different places.

Columns and labels:
[1] = MTT assay, cytotoxic activity; type: cell-based; conditions: human, HaCaT cells (immortal keratinocytes); MTT, 72 h, normal cell line; read-out: IC50 HaCaT
Experimental: (§1) Cells were seeded in 6 mL medium in a tissue culture flask (50 mL) in a 37 °C/5% CO2 humidified incubator. […] MTT analysis was performed according to a previous study.[59] Untreated cells were used as controls. Cell absorbance results were inserted into the formula for the relative MTT level (%). It allows to calculate the viability of cells under the influence of the tested compounds. Cell viability was expressed as the percentage of MTT reduction in cells treated with tested compounds compared to the control sample. The relative MTT level was calculated using the formula [100%] = A/B × 100% where A—the test sample absorbance and B—the control sample absorbance.

E. coli ATCC 25922 = experiment: MIC, twofold microdilution, standard strain; type: cell-based, Escherichia coli; conditions: Escherichia coli, ATCC25922; standard strain, 18 h
[2] = test system: P. aeruginosa ATCC 15442 and E. coli ATCC 25922; experiment: MIC, standard Gram-negative rods as a panel; type: cell-based; conditions: P. aeruginosa ATCC 15442, E. coli ATCC 25922; read-out: MIC against standard Gram-negative rods (range over strains)
E. coli 520 = experiment: MIC, twofold microdilution, clinical strain; type: cell-based; conditions: Escherichia coli, 18 h
S. aureus NCTC 4163 = experiment: MIC, twofold microdilution, standard strain; type: cell-based; conditions: Staphylococcus aureus, NCTC4163, 18 h
[3] = test system: M. tuberculosis Spec. 192; experiment: Tuberculostatic activity, Microplate Alamar Blue Assay (MIC); type: cell-based; conditions: Mycobacterium tuberculosis, MABA, read-out: MIC M. tuberculosis Spec. 192 (sensitive to tuberculostatics)
S. aureus ATCC 29213 = experiment: MIC, twofold microdilution, standard strain; type: cell-based; conditions: Staphylococcus aureus, ATCC29213, 18 h
S. epidermidis 5253 = experiment: MIC, twofold microdilution, clinical strain; type: cell-based, Staphylococcus epidermidis
E. cloacae 8 = experiment: MIC, twofold microdilution, clinical strain; type: cell-based, Escherichia cloacae; conditions: Enterobacter cloacae, 8; clinical strain, 18 h
S. aureus 5595 = experiment: MIC, twofold microdilution, clinical strain; type: cell-based; conditions: Staphylococcus aureus, 18 h
K. pneumoniae 28 = experiment: MIC, twofold microdilution, clinical strain; type: cell-based; conditions: Klebsiella pneumoniae, 18 h
M. tuberculosis H37Rv = experiment: Tuberculostatic activity, Microplate Alamar Blue Assay (MIC); type: cell-based, Mycobacterium tuberculosis; conditions: Mycobacterium tuberculosis, H37RV; MABA; read-out: MIC M. tuberculosis H37Rv
S. aureus T5595 = experiment: MIC, twofold microdilution, clinical strain; type: cell-based, Staphylococcus aureus
[4] = test system: S. epidermidis ATCC 12228; experiment: MIC, twofold microdilution, standard strain; type: cell-based; conditions: Staphylococcus epidermidis, ATCC12228, 18 h
[5] = molecular target: T1, S. aureus topoisomerase IV (Staphylococcus aureus, UniProt P0C1S7+P0C1U9); experiment: Topoisomerase IV decatenation assay; type: biochemical; conditions: decatenation of kinetoplast DNA
T1 construct: purchased Inspiralis, Norwich, UK

S. aureus ATCC 25923 = experiment: MIC, twofold microdilution, standard strain; type: cell-based; conditions: Staphylococcus aureus, ATCC25923, 18 h
P. aeruginosa 659 = experiment: MIC, twofold microdilution, clinical strain; type: cell-based; conditions: Pseudomonas aeruginosa, 18 h
[6] = test system: clinical bacterial strains; experiment: MIC, clinical isolates as groups of strains; type: cell-based
[7] = test system: Staphylococci (standard strains); experiment: MIC, standard Gram-positive strains as a panel; type: cell-based, S. aureus, S. epidermidis; conditions: read-out: MIC toward standard Staphylococci (range over strains)
K. pneumoniae 510 = experiment: MIC, twofold microdilution, clinical strain; type: cell-based, Klebsiella pneumoniae; conditions: Klebsiella pneumoniae, 510; clinical strain, 18 h
PC3 cells = experiment: MTT assay, cytotoxic activity; type: cell-based, human; conditions: Homo sapiens, PC-3, 72 h, MTT, 72 h
Experimental: as §1, with “Metastatic prostate cancer (PC3) and human immortal keratinocyte (HaCaT) cell lines were purchased from the American Type Culture Collection (ATCC, Rockville, MD, USA) and cultured in MEM (minimal essential medium, Thermo Sci, USA), RPMI 1640 (Roswell Park Memorial Institute, Biowest SAS, France), and DMEM (Dulbecco’s Modified Eagle’s Medium, Biowest SAS, France). Cells” for “Cells”

S. pasteuri KR 4358 = experiment: MIC, twofold microdilution, clinical strain; type: cell-based; conditions: Staphylococcus pasteuri, KR4358, 18 h
S. aureus 180 = experiment: MIC, twofold microdilution, clinical strain; type: cell-based; conditions: Staphylococcus aureus, 18 h
P. aeruginosa ATCC 15442 = experiment: MIC, twofold microdilution, standard strain; type: cell-based, Pseudomonas aeruginosa; conditions: Pseudomonas aeruginosa, ATCC15442; standard strain, 18 h
S. epidermidis KR4243/1 = experiment: MIC, twofold microdilution, clinical strain; type: cell-based; conditions: Staphylococcus epidermidis, 18 h
E. coli 600 = experiment: MIC, twofold microdilution, clinical strain; type: cell-based, Escherichia coli; conditions: Escherichia coli, 600, 18 h
S. aureus ATCC 6538 = experiment: MIC, twofold microdilution, standard strain; type: cell-based, Staphylococcus aureus; conditions: Staphylococcus aureus, ATCC6538; standard strain, 18 h
P. aeruginosa 37 = experiment: MIC, twofold microdilution, clinical strain; type: cell-based; conditions: Pseudomonas aeruginosa, 18 h
S. epidermidis 4341 = experiment: MIC, twofold microdilution, clinical strain; type: cell-based; conditions: Staphylococcus epidermidis, 18 h
S. aureus T5591 = experiment: MIC, twofold microdilution, clinical strain; type: cell-based, Staphylococcus aureus
[8] = test system: S. epidermidis ATCC 35984; experiment: MIC, twofold microdilution, standard strain; type: cell-based; conditions: Staphylococcus epidermidis, ATCC35984, 18 h
E. coli 951 = experiment: MIC, twofold microdilution, clinical strain; type: cell-based; conditions: Escherichia coli, 18 h
S. aureus DNA gyrase = S. aureus DNA gyrase (Staphylococcus aureus, UniProt P0A0K8+P20831); experiment: biochemical; conditions: supercoiling of relaxed pBR322
Experimental: The enzymatic assay was carried using commercial topoisomerases type II as previously described by Alt et al.[55] with some modifications.
Briefly, 1 U of the enzyme (gyrase or topo IV, Inspiralis. Norwich, UK) isolated from S. aureus converts […] of relaxed pBR322 DNA to the supercoiled form (gyrase) or decatenates 200 ng of kinetoplast DNA (topo IV). […] The reactions were terminated by adding an equal volume of STEB buffer (40% sucrose, 100 mM Tris–HCl pH 8, 10 mM EDTA, and 0.5 mg/mL bromophenol blue), followed by extraction with 1 volume of chloroform/isoamyl alcohol (24:1). The samples were vortexed and centrifuged, and 20 μL of the aqueous phase of each sample was loaded onto a 1% agarose gel and left for 30 min prior to electrophoresis to allow diffusion of salt. […] Gels were stained with ethidium bromide and visualized under UV light in a transilluminator (ChemiDoc MP, Bio Rad).

SMILES: O=C(O)c1cn(C2CC2)c2cc(N3CCN(C(=O)CCCCCl)CC3)c(F)cc2c1=O [Compound 6, 7-[4-(5-Chloropentanoyl)-piperazin-1-yl]-1-cyclopropyl-6-fluoro-4-oxo-1,4-dihydro-quinoline-3-carboxylic Acid]
- IC50 at 72 h [1]: 19.7 ± 2.8 µM
- MIC (E. coli ATCC 25922): 0.2 mg/L (≈ 0.445 µM)
- MIC [2]: ≤ 1 mg/L
- MIC (E. coli 520): 0.4 mg/L (≈ 0.889 µM)
- MIC (S. aureus NCTC 4163): 0.2 mg/L (≈ 0.445 µM)
- MIC [3]: 0.5 mg/L (≈ 1.11 µM)
- MIC (S. aureus ATCC 29213): 0.2 mg/L (≈ 0.445 µM)
- MIC S. epidermidis 5253 (S. epidermidis 5253; 18 h): 12.8 mg/L (≈ 28.5 µM)
- MIC (S. epidermidis 5253; Staphylococcus epidermidis, 5253, 18 h): 12.8 to 25.6 mg/L (≈ 28.5 to 56.9 µM)
- MIC (E. cloacae 8): 0.8 mg/L (≈ 1.78 µM)
- MIC (S. aureus 5595): 0.1 mg/L (≈ 0.222 µM)
- MIC (K. pneumoniae 28): > 25.6 mg/L
- MIC (M. tuberculosis H37Rv): 0.5 mg/L (≈ 1.11 µM)
- MIC S. aureus T5595 (S. aureus T5595; 18 h): 0.2 mg/L (≈ 0.445 µM)
- MIC (S. aureus T5595; Staphylococcus aureus, T5595, 18 h): 0.1 to 0.2 mg/L (≈ 0.222 to 0.445 µM)
- MIC [4]: 0.2 mg/L (≈ 0.445 µM)
- IC50 ([5]; read-out: IC50 S. aureus topoisomerase IV (converted)): 17.8 µM
- MIC (S. aureus ATCC 25923): 0.2 mg/L (≈ 0.445 µM)
- MIC (P. aeruginosa 659): 12.8 mg/L (≈ 28.5 µM)
- fold more effective than CP ([6]; S. aureus 180 and 5595): 5 fold
- times more powerful than CP ([6]; S. aureus T5595 and T5591): 1.25–2.5 times
- MIC ([6]; clinical strains, read-out: MIC against selected E. coli and E. cloacae strains): 0.1 to 0.8 mg/L (≈ 0.222 to 1.78 µM)
- MIC [7]: 0.1 to 0.8 mg/L (≈ 0.222 to 1.78 µM)
- MIC (K. pneumoniae 510): > 25.6 mg/L
- IC50 (PC3 cells): 108 ± 11 µM
- MIC (S. pasteuri KR 4358): 0.2 mg/L (≈ 0.445 µM)
- MIC (S. aureus 180): 0.1 mg/L (≈ 0.222 µM)
- MIC (P. aeruginosa ATCC 15442): 1.6 mg/L (≈ 3.56 µM)
- MIC (S. epidermidis KR4243/1): 0.2 mg/L (≈ 0.445 µM)
- MIC (E. coli 600): 0.4 mg/L (≈ 0.889 µM)
- MIC (S. aureus ATCC 6538): 0.2 mg/L (≈ 0.445 µM)
- MIC (P. aeruginosa 37): 6.4 mg/L (≈ 14.2 µM)
- MIC (S. epidermidis 4341): 6.4 mg/L (≈ 14.2 µM)
- MIC S. aureus T5591 (S. aureus T5591; 18 h): 0.2 mg/L (≈ 0.445 µM)
- MIC (S. aureus T5591; Staphylococcus aureus, T5591, 18 h): 0.1 to 0.2 mg/L (≈ 0.222 to 0.445 µM)
- MIC [8]: 0.2 mg/L (≈ 0.445 µM)
- MIC (E. coli 951): 12.8 mg/L (≈ 28.5 µM)
- IC50 (S. aureus DNA gyrase): 12 µM

SMILES: COc1c(N2C[C@@H]3CCCN[C@@H]3C2)c(F)cc2c(=O)c(C(=O)O)cn(C3CC3)c12 [MXF, moxifloxacin, reference compound]
- IC50 ([5]; IC50 S. aureus topoisomerase IV): 3.74 µM
